In patent US4638088A, “Pesticidal biphenylyloxy and biphenylylalkoxy aryl acyl urea compounds” (Union Carbide Corporation, priority 1984, dated 1987):
Converted amounts (≈) assume the structure as drawn. Like-named read-outs stand apart in the source and are kept apart here.

Tests used:
Heliothis zea = experiment: Tobacco Budworm and Cotton Bollworm Leaf Spray Bait Test (cotton bollworm); format: in vivo; details: Helicoverpa zea, 120 h, read-out: LC50 values, Heliothis Zea
Procedure: (§1) Suspension of the test compounds were prepared by dissolving one gram of compound in 50 milliliters of acetone in which had been dissolved 0.1 gram (10 percent of the weight of compound) of an alkylphenoxy polyethoxyethanol surfactant, as an emulsifying or dispersing agent. The resulting solution was mixed into 150 milliliters of water to give roughly 200 milliliters of a suspension containing the compound in finely divided form. The thus-prepared stock suspension contained 0.5 percent by weight of compound. The test concentrations in parts per million by weight employed in the tests described hereinbelow were obtained by appropriate dilutions of the stock suspension with water. Certain of the test compounds were also prepared by dissolving 375 mg of compound in 7.5 ml of dimethylformamide. Fifteen milliliters of acetone containing 37.5 mg (10 percent of the weight of test compound) of an alkylphenoxy polyethoxyethanol surfactant, as a wetting/emulsifying/dispersing agent was added to the dimethylformamide solution. Fifty-two and one-half milliliters of water wasa mixed into the dimethylformamide-acetone mixture to give roughly 75 ml of a suspension containing the compound in solution or in finely divided form. The thus prepared stock suspension contained 0.5 percent by weight of compound. The test procedures were as follows:
(§2) Second instar larvae of the tobacco budworm (weighing about 4.5 mg) (Heliothis virescens, F.) and the cotton bollworm (weighing about 2.5 mg) (Heliothis zea, (Boddie)), obtained commercially and reared on artificial diet at a temperature of 80°±5° F. and a relative humidity of 50±5 percent, constituted the test insects.
(§3) Using a procedure similar to the above, but substituting cotton plants for snapbeans, treated and dried cotton leaves were introduced into 9 cm Petri dishes which were organized into groups of 10-dish sets. One randomly selected larvae was introduced into each dish of a ten dish set and the dishes were closed. The closed dishes were labelled and held at 80°±5° F. for five days. Larvae which were unable to move the length of the body, even upon stimulation, were considered dead. Percent mortality was recorded for various concentration levels. LC50 or concentration required to kill 50 percent of the larvae was determined from the mortality figures.

Heliothis virescens = experiment: Tobacco Budworm and Cotton Bollworm Leaf Spray Bait Test (tobacco budworm); format: in vivo; details: 120 h, read-out: LC50 values, Heliothis Virescens
Procedure: as §1, §2, §3

southern armyworm = experiment: Southern Armyworm Leaf Spray Bait Test; format: in vivo; details: Spodoptera eridania, 120 h, read-out: Activity at 500 ppm, SAW, 500 ppm; Southern Armyworm larvae; up to five days
Procedure: as §1
Larvae of the southern armyworm (Spodoptera eridania, (Cram.), reared on Tendergreen bean plants at a temperature of 80°±5° F. and a relative humidity of 50±5 percent, constituted the test insects.
Potted Tendergreen bean plants of standarad height and age were placed on a revolving turntable and sprayed with 100-110 milliliters of test compound formulation by use of a DeVilbiss spray gun set at 40 psig air pressure. This application, which lasted 25 seconds, was sufficient to wet plants to run-off. As a control, 100-110 milliliters of a water-acetone-emulsifier solution containing no test compound was also sprayed on infested plants. When dry, the paired leaves were separated and each one was placed in a 9 centimeter Petri dish lined with moistened filter paper. Five randomly selected larvae were introduced into each dish and the dishes were closed. The closed dishes were labeled and held at 80°-85° F. for up to five days. Although the larvae could easily consume the whole leaf within twenty-four hours, no more food was added. Larvae which were unable to move the length of the body, even upon stimulation by prodding, were considered dead. Percent mortality was recorded for various concentration levels.

Mexican bean beetle = experiment: Mexican Bean Beetle Leaf Spray Test; format: in vivo, Epilachna varivestic; details: Epilachna varivestis, 120 h, Mexican Bean Beetle larvae, five days, read-out: Activity at 500 ppm, MBB
Procedure: as §1
Fourth instar larvae of the Mexican bean beetle (Epilachna varivestic, Muls.), reared on Tendergreen bean plants at a temperature of 80°±5° F. and 50±5 percent relative humidity, were the test insects. For certain of the tests second instar larvae (weighting about 6 mg) of the Mexican bean beetle (Epilachna varaivestis, Muls.), reared on Sieva Pole lime bean plants at a temperature of 80°±5° F. and 50±5 percent relative humidity, were the test insects.
The test compounds were formulated by diluting the stock suspension with water to give a suspension containing 500 parts of test compound per million parts of final formulation. Potted Tendergreen bean plants of standard height and age were placed on a revolving turntable and sprayed with 100-110 milliliters of test compound formulation by use of a DeVilbiss spray gun set at 40 psig air pressure. This application, which lasted 25 seconds, was sufficient to wet plants to run-off. As a control, 100-110 milliliters of a water-acetone-emulsifier solution containing no test compound was also sprayed on infested plants. When dry, the paired leaves were separated and each was placed in a 9 centimeter Petri dish lined with moistened filter paper. Five randomly selected larvae were introduced into each dish, and the dishes were closed. The closed dishes were labeled and held at a temperature of 80°±5° F., for five days. Although the larvae could easily consume the leaf within 24 to 48 hours, no more food was added. Larvae which were unable to move the length of the body, even upon stimulation, were considered dead. Percent mortality was recorded for various concentration levels.

two-spotted mite = experiment: Mite Larvacidal Test Method; format: in vivo; details: Tetranychus urticae, 144 h, two-spotted mite larvae, five to six days, read-out: Mortality Rating at 500 ppm, Larvae
Procedure: Then the larvae are transferred to bean plants 6-8 inches in height. A sufficient number of larvae for testing (50-100) were transferred from TEPP treated leaves to the fresh plants in 24 hours.
Infested Tendergreen bean plants are placed on a revolving turntable. Test compounds are formulated with DMF, acetone, and a 3 to 1 mixture of Triton 172 and 152 (alkylphenoxy polyethoxyethanol surfactant mixture), respectively and then diluted in water to appropriate concentrations of chemical for application to the infested plants by use of a DeVilbiss spray gun with air pressure set at 40 pounds. The volume of 100 milliliters is sufficient to wet the plants to run off. A blank formulation is used for the control.
The treated plants are held at 80°±5° F. and 50±5 percent relative humidity for a period of five to six days, when mortality counts of the larvae are made.

[1] = Heliothis Zea, second instar larvae, five days

O=C(NC(=O)c1c(F)cccc1F)Nc1ccc(Cl)cc1 [Comparative Example A, reference compound]
LC50 (Heliothis zea): 500 µg/mL (≈ 1610 µM)
LC50 (Heliothis virescens): 31 µg/mL (≈ 99.8 µM)

Cc1cc(NC(=O)NC(=O)c2c(F)cccc2F)c(C)c(Cl)c1Oc1ccccc1-c1ccccc1 [Example 36]
LC50 (Heliothis zea; [1]): 2.2 µg/mL (≈ 4.34 µM)
LC50 (Heliothis virescens): 9 µg/mL (≈ 17.8 µM)

Cc1ccc(Oc2ccc(NC(=O)NC(=O)c3c(F)cccc3F)cc2Cl)c(C)c1 [Comparative Example J, reference compound]
LC50 (Heliothis zea; [1]): > 100 µg/mL
LC50 (Heliothis virescens): > 100 µg/mL

Cc1cc(NC(=O)NC(=O)c2ccccc2Cl)c(C)c(Cl)c1Oc1ccccc1-c1ccccc1 [Example 37]
LC50 (Heliothis zea; [1]): 1.7 µg/mL (≈ 3.36 µM)
LC50 (Heliothis virescens): 4 µg/mL (≈ 7.91 µM)

Cc1cc(NC(=O)NC(=O)c2c(F)cccc2F)c(C)c(Cl)c1Oc1ccc(Cl)cc1-c1ccccc1 [Example 38]
LC50 (Heliothis zea; [1]): 1.6 µg/mL (≈ 2.96 µM)
LC50 (Heliothis virescens): 1.9 µg/mL (≈ 3.51 µM)

O=C(NC(=O)c1c(F)cccc1F)Nc1cc(Cl)c(OCc2ccccc2-c2ccccc2)c(Cl)c1 [Example 39]
LC50 (Heliothis zea; [1]): 5 µg/mL (≈ 9.48 µM)
LC50 (Heliothis virescens): 16 µg/mL (≈ 30.3 µM)

O=C(NC(=O)c1c(F)cccc1F)Nc1cc(Cl)c(Oc2cccc3ccccc23)c(Cl)c1 [Comparative Example K, reference compound]
LC50 (Heliothis zea; [1]): 30 µg/mL (≈ 61.6 µM)
LC50 (Heliothis virescens): 500 µg/mL (≈ 1030 µM)

Cc1cc(Oc2ccccc2-c2ccccc2)c(Cl)cc1NC(=O)NC(=O)c1ccccc1Cl [Example 21]
mortality at 500 ppm (southern armyworm): 71 to 100%
mortality at 500 ppm (Mexican bean beetle): 71 to 100%

Cc1cc(NC(=O)NC(=O)c2c(F)cccc2Cl)c(C)c(Cl)c1Oc1ccc(-c2ccccc2)cc1Cl [Example 16]
mortality at 500 ppm (southern armyworm): 71 to 100%
mortality at 500 ppm (Mexican bean beetle): 71 to 100%

O=C(NC(=O)c1ccccc1Cl)Nc1cc(Cl)c(Oc2ccccc2-c2ccccc2)c(Cl)c1 [Example 32]
mortality at 500 ppm (southern armyworm): 71 to 100%
mortality at 500 ppm (Mexican bean beetle): 71 to 100%

Cc1cc(NC(=O)NC(=O)c2c(F)cccc2Cl)c(C)c(Cl)c1Oc1ccccc1-c1ccccc1 [Example 40]
mortality at 500 ppm (two-spotted mite): 71 to 100%

Cc1cc(NC(=O)NC(=O)c2c(F)cccc2Cl)c(C)c(Cl)c1Oc1ccc(Cl)cc1-c1ccccc1 [Example 19]
mortality at 500 ppm (southern armyworm): 71 to 100%
mortality at 500 ppm (Mexican bean beetle): 71 to 100%

Cc1cc(NC(=O)NC(=O)c2ccccc2Cl)c(C)c(Cl)c1Oc1ccccc1-c1ccccc1 [Example 3]
mortality at 500 ppm (southern armyworm): 71 to 100%
mortality at 500 ppm (Mexican bean beetle): 71 to 100%
